# Laboratory results from patent US12011422B2, “Synthetic antibacterial compounds and uses thereof” (priority 2021, dated 2024).
# Test system: a strain of S. aureus
# Experiment: MIC determination (CLSI broth microdilution) against S. aureus
# Assay type: cell-based, Staphylococcus aureus
# Settings: Staphylococcus aureus, 18 h, 37° C., lowest concentration showing <10% bacterial growth, read-out: Staph MIC
# Experimental: (§1) The protocol for MIC determination is based on the Clinical & Laboratory Standards Institute (CLSI) guidelines. MICs are determined by setting up 96-well microtiter plates with serially diluted concentrations in DMSO or water ranging from 0-256 μg/mL for each compound of the invention (e.g., 256 μg/mL, 128 μg/mL, 64 μg/mL, 32 μg/mL, 16 μg/mL, 8 μg/mL, 4 μg/mL, 2 μg/mL, 1 μg/mL, etc.). The total volume in each plate is about 200 μL, with 2 μL of each serial dilution added to each well. Clinical isolates of various bacteria are obtained from the American Type Culture Collection (ATCC) and colony-resuspended for MIC testing as per CLSI guidelines. Plates are incubated at 37° C. for 18 hours, and optical density is read on a Tecan M1000 Infinite Pro plate reader at 600 nm. At least 3 replicates are done for each query compound. The MIC for each compound is the lowest compound concentration showing <10% bacterial growth.
# (§2) The protocol as described in Example 2 was used to determine the minimal inhibitory concentration (MIC) of each of the following compounds against a strain of S. aureus and Pore-TolC E. coli.
row,Compound,MIC
1,CC(C)=CCC/C(C)=C/Cc1c(O)cc(-c2cnc(N)cn2)cc1O [MLEB-19117],4 µg/mL
2,CC(C)=CCC/C(C)=C/Cc1c(O)cc(-c2cc(C(F)(F)F)cc(C(F)(F)F)c2)cc1O [MLEB-19118],1 µg/mL
3,CC(C)=CCC/C(C)=C/Cc1c(O)cc(-c2c(C)noc2C)cc1O [MLEB-19120],2 µg/mL
4,CC(C)=CCC/C(C)=C/Cc1c(O)cc(-c2ccccc2Cl)cc1O [MLEB-19121],0.5 µg/mL
5,CC(C)=CCC/C(C)=C/Cc1c(O)cc(-c2ccncc2)cc1O [MLEB-19128],4 µg/mL
6,CC(C)=CCC/C(C)=C/Cc1c(O)cc(-c2ccc(F)nc2)cc1O [MLEB-19130],2 µg/mL
7,CC(C)=CCC/C(C)=C/Cc1c(O)cc(-c2ccc(C=O)cc2F)cc1O [MLEB-19131],2 µg/mL
8,CC(C)=CCC/C(C)=C/Cc1c(O)cc(-c2cccc(Cl)c2)cc1O [MLEB-19132],1 µg/mL
9,CC(C)=CCC/C(C)=C/Cc1c(O)cc(-c2cnccc2Cl)cc1O [MLEB-19133],4 µg/mL
10,CC(C)=CCC/C(C)=C/Cc1c(O)cc(-c2cccc([N+](=O)[O-])c2)cc1O [MLEB-19134],1 µg/mL
11,CC(C)=CCC/C(C)=C/Cc1c(O)cc(-c2ccnc(Cl)c2)cc1O [MLEB-19135],4 µg/mL
12,CC(C)=CCC/C(C)=C/Cc1c(O)cc(-c2ccc(C#N)cc2)cc1O [MLEB-19136],4 µg/mL
13,CC(C)=CCC/C(C)=C/Cc1c(O)cc(-c2cccnc2Cl)cc1O [MLEB-19137],1 µg/mL
14,COc1ccc(-c2cc(O)c(C/C=C(\C)CCC=C(C)C)c(O)c2)cn1 [MLEB-19138],16 µg/mL
15,CC(C)=CCC/C(C)=C/Cc1c(O)cc(-c2cnc(Cl)nc2)cc1O [MLEB-19139],16 µg/mL
16,CC(C)=CCC/C(C)=C/Cc1c(O)cc(-c2ccc(C=O)o2)cc1O [MLEB-19161],4 µg/mL
17,CC(C)=CCC/C(C)=C/Cc1c(O)cc(-c2ccc(C#N)s2)cc1O [MLEB-19162],2 µg/mL
18,COc1ccc(-c2cc(O)c(C/C=C(\C)CCC=C(C)C)c(O)c2)cc1 [MLEB-19163],4 µg/mL
19,CC(C)=CCC/C(C)=C/Cc1c(O)cc(-c2ccc(C=O)c(F)c2)cc1O [MLEB-19164],2 µg/mL
20,CC(C)=CCC/C(C)=C/Cc1c(O)cc(-c2ccc([N+](=O)[O-])cc2)cc1O [MLEB-19165],2 µg/mL

# Test system: Pore-TolC E. coli
# Experiment: MIC determination (CLSI broth microdilution) against Pore-TolC E. coli
# Assay type: cell-based, Escherichia coli
# Settings: Escherichia coli, 18 h, read-out: Pore-TolC E. coli MIC, Pore-TolC E. coli, 37° C., lowest concentration showing <10% bacterial growth
# Experimental: as §1, §2
row,Compound,MIC
1,CC(C)=CCC/C(C)=C/Cc1c(O)cc(-c2cc(C(F)(F)F)cc(C(F)(F)F)c2)cc1O [MLEB-19118],8 µg/mL
2,CC(C)=CCC/C(C)=C/Cc1c(O)cc(-c2ccncc2)cc1O [MLEB-19128],2 µg/mL
3,CC(C)=CCC/C(C)=C/Cc1c(O)cc(-c2ccc(F)nc2)cc1O [MLEB-19130],2 µg/mL
4,CC(C)=CCC/C(C)=C/Cc1c(O)cc(-c2ccc(C=O)cc2F)cc1O [MLEB-19131],2 µg/mL
5,CC(C)=CCC/C(C)=C/Cc1c(O)cc(-c2cccc(Cl)c2)cc1O [MLEB-19132],1 µg/mL
6,CC(C)=CCC/C(C)=C/Cc1c(O)cc(-c2cnccc2Cl)cc1O [MLEB-19133],2 µg/mL
7,CC(C)=CCC/C(C)=C/Cc1c(O)cc(-c2cccc([N+](=O)[O-])c2)cc1O [MLEB-19134],1 µg/mL
8,CC(C)=CCC/C(C)=C/Cc1c(O)cc(-c2ccnc(Cl)c2)cc1O [MLEB-19135],1 µg/mL
9,CC(C)=CCC/C(C)=C/Cc1c(O)cc(-c2ccc(C#N)cc2)cc1O [MLEB-19136],2 µg/mL
10,CC(C)=CCC/C(C)=C/Cc1c(O)cc(-c2cccnc2Cl)cc1O [MLEB-19137],1 µg/mL
11,CC(C)=CCC/C(C)=C/Cc1c(O)cc(-c2cnc(Cl)nc2)cc1O [MLEB-19139],4 µg/mL
12,CC(C)=CCC/C(C)=C/Cc1c(O)cc(-c2ccc(C=O)o2)cc1O [MLEB-19161],4 µg/mL
13,CC(C)=CCC/C(C)=C/Cc1c(O)cc(-c2ccc(C#N)s2)cc1O [MLEB-19162],4 µg/mL
14,COc1ccc(-c2cc(O)c(C/C=C(\C)CCC=C(C)C)c(O)c2)cc1 [MLEB-19163],2 µg/mL
15,CC(C)=CCC/C(C)=C/Cc1c(O)cc(-c2ccc(C=O)c(F)c2)cc1O [MLEB-19164],4 µg/mL
16,CC(C)=CCC/C(C)=C/Cc1c(O)cc(-c2ccc([N+](=O)[O-])cc2)cc1O [MLEB-19165],1 µg/mL
